# Laboratory results taken from ChEMBL document CHEMBL3421611, “New quinolone- and 1,8-naphthyridine-3-carboxamides as selective CB2 receptor agonists with anticancer and immuno-modulatory activity” (Eur J Med Chem, 2015).
# The source made the active and inactive calls. The rule behind the calls is not given here.
# Legend:
# LNCaP [1] = experiment: Cytotoxicity against human LNCAP cells expressing CB2 receptor assessed as decrease in cell viability after 72 hrs by neutral red uptake and accumulation assay
# Cannabinoid receptor 2 [2] = molecular target: T1, Cannabinoid receptor 2 (Homo sapiens, UniProt P34972); experiment: Displacement of [3H]-CP-55940 from recombinant human CB2 receptor overexpressed in HEK293 cell membranes after 90 mins
# Homo sapiens = species on record: Homo sapiens; experiment: Selectivity index, ratio of Ki for recombinant human CB1 receptor to Ki for recombinant human CB2 receptor
# Cannabinoid receptor 1 [3] = molecular target: Cannabinoid receptor 1 (Homo sapiens, UniProt P21554); experiment: Displacement of [3H]-CP-55940 from recombinant human CB1 receptor overexpressed in HEK293 cell membranes after 90 mins
# PBMC [4] = experiment: Immunomodulatory activity in human myelin basic protein activated PBMC isolated from healthy human assessed as inhibition of CD69 expression after 6 days by flow cytometric analysis; format: functional, cell-based
# LNCaP [5] = experiment: Cytotoxicity against human LNCAP cells expressing CB2 receptor assessed as decrease in cell viability at 2 uM after 72 hrs by neutral red uptake and accumulation assay in presence of CB2 receptor antagonist MC21 relative to control; format: functional, cell-based
# PBMC [6] = experiment: Immunomodulatory activity in human myelin basic protein activated PBMC isolated from multiple sclerosis patient assessed as inhibition of CD49d expression at 10 uM after 6 days by flow cytometric analysis; format: functional, cell-based
# Cannabinoid receptor 2 [7] = molecular target: T1, Cannabinoid receptor 2; experiment: Agonist activity at human CB2 receptor transfected in CHO cell membranes after 90 mins by [35S]-GTPgammaS assay; format: functional
# PBMC [8] = experiment: Immunomodulatory activity in human myelin basic protein activated PBMC isolated from healthy human assessed as inhibition of CD49d expression after 6 days by flow cytometric analysis; format: functional, cell-based
# PBMC [9] = experiment: Antiinflammatory activity in human myelin basic protein activated PBMC isolated from healthy human assessed as inhibition of phosphorylated Akt expression after 6 days by Western blot analysis; format: functional, cell-based
# PBMC [10] = experiment: Immunomodulatory activity in human myelin basic protein activated PBMC isolated from multiple sclerosis patient assessed as inhibition of CD25 expression at 10 uM after 6 days by flow cytometric analysis; format: functional, cell-based
# [11] = molecular target: Cannabinoid receptor 1 (Rattus norvegicus) (UniProt P20272); experiment: Modulation of CB1 receptor-mediated G protein activity in rat cerebellar membranes at < 10 uM after 90 mins by [35S]-GTPgammaS assay; format: functional, cell membranes; conditions: Cerebellum, Membrane
# PBMC [12] = experiment: Antiinflammatory activity in human myelin basic protein activated PBMC isolated from multiple sclerosis patient assessed as inhibition of phosphorylated Cox-2 expression at 10 uM after 6 days by Western blot analysis; format: functional, cell-based
# PBMC [13] = experiment: Immunomodulatory activity in human myelin basic protein activated PBMC isolated from multiple sclerosis patient assessed as inhibition of CD54 expression at 10 uM after 6 days by flow cytometric analysis; format: functional, cell-based
# PBMC [14] = experiment: Immunomodulatory activity in human myelin basic protein activated PBMC isolated from healthy human assessed as decrease in cell proliferation after 6 days by trypan blue staining-based haemocytometric analysis relative to control; format: functional
# PBMC [15] = experiment: Immunomodulatory activity in human myelin basic protein activated PBMC isolated from healthy human assessed as inhibition of CD25 expression after 6 days by flow cytometric analysis; format: functional, cell-based
# PBMC [16] = experiment: Immunomodulatory activity in human myelin basic protein activated PBMC isolated from healthy human assessed as inhibition of CD62 expression after 6 days by flow cytometric analysis; format: functional, cell-based
# PBMC [17] = experiment: Immunomodulatory activity in human myelin basic protein activated PBMC isolated from multiple sclerosis patient assessed as decrease in cell proliferation after 6 days by trypan blue staining-based haemocytometric analysis relative to control; format: functional
# PBMC [18] = experiment: Antiinflammatory activity in human myelin basic protein activated PBMC isolated from multiple sclerosis patient assessed as inhibition of phosphorylated Akt expression at 10 uM after 6 days by Western blot analysis; format: functional, cell-based
# PBMC [19] = experiment: Antiinflammatory activity in human myelin basic protein activated PBMC isolated from healthy human assessed as inhibition of phosphorylated Cox-2 expression after 6 days by Western blot analysis; format: functional, cell-based
# CHO = experiment: Effect on mock-transfected CHO cell membranes after 90 mins by [35S]-GTPgammaS assay; format: functional; conditions: Cricetulus griseus
# PBMC [20] = experiment: Immunomodulatory activity in human myelin basic protein activated PBMC isolated from healthy human assessed as inhibition of CD54 expression after 6 days by flow cytometric analysis; format: functional, cell-based
# PBMC [21] = experiment: Immunomodulatory activity in human myelin basic protein activated PBMC isolated from healthy human assessed as inhibition of CD54 expression at 10 uM after 6 days by flow cytometric analysis; format: functional, cell-based
# [22] = molecular target: Cannabinoid receptor 1 (Rattus norvegicus) (UniProt P20272); experiment: Agonist activity at CB1 receptor in rat cerebellar membranes at 3 uM after 90 mins by [35S]-GTPgammaS assay in presence of CB1 antagonist AM251; format: functional, cell membranes; conditions: Cerebellum, Membrane
# PBMC [23] = experiment: Immunomodulatory activity in human myelin basic protein activated PBMC isolated from healthy human assessed as inhibition of CD49d expression at 10 uM after 6 days by flow cytometric analysis; format: functional, cell-based
# LNCaP [24] = experiment: Cytotoxicity against human LNCAP cells expressing CB2 receptor assessed as decrease in cell viability at 5 uM after 72 hrs by neutral red uptake and accumulation assay in presence of CB2 receptor antagonist MC21 relative to control; format: functional, cell-based
# [25] = molecular target: Cannabinoid receptor 1 (Rattus norvegicus) (UniProt P20272); experiment: Agonist activity at CB1 receptor in rat cerebellar membranes after 90 mins by [35S]-GTPgammaS assay relative to 2-AG; format: functional, cell membranes; conditions: Cerebellum, Membrane
# PBMC [26] = experiment: Antiinflammatory activity in human myelin basic protein activated PBMC isolated from healthy human assessed as inhibition of phosphorylated Akt expression at 10 uM after 6 days by Western blot analysis; format: functional, cell-based
# PBMC [27] = experiment: Antiinflammatory activity in human myelin basic protein activated PBMC isolated from healthy human assessed as inhibition of phosphorylated Cox-2 expression at 10 uM after 6 days by Western blot analysis; format: functional, cell-based
# Cannabinoid receptor 1 [28] = molecular target: Cannabinoid receptor 1 (Rattus norvegicus, UniProt P20272); experiment: Agonist activity at CB1 receptor in rat cerebellar membranes after 90 mins by [35S]-GTPgammaS assay; format: functional, cell membranes, Cerebellum, Membrane
# PBMC [29] = experiment: Immunomodulatory activity in human myelin basic protein activated PBMC isolated from healthy human assessed as inhibition of CD25 expression at 10 uM after 6 days by flow cytometric analysis; format: functional, cell-based
# PBMC [30] = experiment: Immunomodulatory activity in human myelin basic protein activated PBMC isolated from healthy human assessed as inhibition of CD62 expression at 10 uM after 6 days by flow cytometric analysis; format: functional, cell-based
# PBMC [31] = experiment: Immunomodulatory activity in human myelin basic protein activated PBMC isolated from healthy human assessed as viable cells at 10 uM after 6 days by trypan blue staining-based haemocytometric analysis; format: functional; conditions: 144 h, read-out: Activity
# PBMC [32] = experiment: Immunomodulatory activity in human myelin basic protein activated PBMC isolated from healthy human assessed as inhibition of CD69 expression at 10 uM after 6 days by flow cytometric analysis; format: functional, cell-based
# PBMC [33] = experiment: Immunomodulatory activity in human myelin basic protein activated PBMC isolated from multiple sclerosis patient assessed as decrease in cell proliferation at 10 uM after 6 days by trypan blue staining-based haemocytometric analysis relative to control; format: functional
# Cannabinoid receptor 1 (Homo sapiens, UniProt P21554), sequence (P21554 whole entry): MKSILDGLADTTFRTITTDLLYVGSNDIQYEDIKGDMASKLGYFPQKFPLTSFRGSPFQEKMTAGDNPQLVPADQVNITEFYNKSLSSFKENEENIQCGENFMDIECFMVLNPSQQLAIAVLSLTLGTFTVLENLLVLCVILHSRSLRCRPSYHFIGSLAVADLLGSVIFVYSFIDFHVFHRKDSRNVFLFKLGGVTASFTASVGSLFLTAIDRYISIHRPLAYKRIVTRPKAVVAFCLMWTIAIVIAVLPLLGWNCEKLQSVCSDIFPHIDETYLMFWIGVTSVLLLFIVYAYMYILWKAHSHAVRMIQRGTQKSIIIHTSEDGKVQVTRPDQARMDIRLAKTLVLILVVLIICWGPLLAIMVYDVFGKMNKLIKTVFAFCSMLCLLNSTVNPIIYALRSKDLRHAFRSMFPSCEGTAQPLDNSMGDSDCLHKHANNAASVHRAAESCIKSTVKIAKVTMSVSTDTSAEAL
# Cannabinoid receptor 1 (Rattus norvegicus), sequence (P20272 whole entry): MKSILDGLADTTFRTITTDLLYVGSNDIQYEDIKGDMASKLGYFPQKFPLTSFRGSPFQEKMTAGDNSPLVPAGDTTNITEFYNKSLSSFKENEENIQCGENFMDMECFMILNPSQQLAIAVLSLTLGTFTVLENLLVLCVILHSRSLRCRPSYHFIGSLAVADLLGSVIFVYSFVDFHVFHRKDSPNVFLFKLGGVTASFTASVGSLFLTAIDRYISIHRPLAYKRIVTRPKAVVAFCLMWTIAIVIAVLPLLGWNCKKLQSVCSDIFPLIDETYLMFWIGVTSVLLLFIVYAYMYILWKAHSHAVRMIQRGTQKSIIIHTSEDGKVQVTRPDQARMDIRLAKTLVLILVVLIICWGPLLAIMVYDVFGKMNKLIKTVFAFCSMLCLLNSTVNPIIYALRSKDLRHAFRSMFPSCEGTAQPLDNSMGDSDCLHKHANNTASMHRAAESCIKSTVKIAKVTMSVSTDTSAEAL
# T1 sequence (P34972 whole entry): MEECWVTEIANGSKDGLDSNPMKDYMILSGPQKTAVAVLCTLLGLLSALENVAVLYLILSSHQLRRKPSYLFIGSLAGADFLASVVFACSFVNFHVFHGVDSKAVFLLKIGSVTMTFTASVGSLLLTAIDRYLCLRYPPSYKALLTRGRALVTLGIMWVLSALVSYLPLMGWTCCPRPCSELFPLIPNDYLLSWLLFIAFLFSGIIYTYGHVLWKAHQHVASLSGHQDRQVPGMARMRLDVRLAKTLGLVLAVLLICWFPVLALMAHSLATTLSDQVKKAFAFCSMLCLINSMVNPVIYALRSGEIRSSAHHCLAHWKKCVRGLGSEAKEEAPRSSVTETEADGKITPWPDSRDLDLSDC
# Cannabinoid receptor 1 (Rattus norvegicus, UniProt P20272), sequence (P20272 whole entry): as the sequence (P20272 whole entry) above
smiles,measurement,setting,value
CCCC(C)(C)c1ccc2c(c1)OC(C)(C)[C@@H]1CC=C(C)C[C@@H]21,IC50,LNCaP [1],11600 nM
CC1CCC(NC(=O)c2c(O)c3cccnc3n(CCN3CCOCC3)c2=O)CC1 (configuration not stated),Ki,Cannabinoid receptor 2 [2],7.44 nM
same,Ratio Ki,Homo sapiens,85
same,Ki,Cannabinoid receptor 1 [3],630 nM
CC1CCC(NC(=O)c2cc3ccccc3n(CCCO)c2=O)CC1 (configuration not stated),Ki,Cannabinoid receptor 2 [2],36 nM
same,Ratio Ki,Homo sapiens,104
same,Ki,Cannabinoid receptor 1 [3],3760 nM
CCCn1c(=O)c(C(=O)NC2CCC(C)CC2)cc2ccccc21 (configuration not stated),Ki,Cannabinoid receptor 2 [2],25.4 nM
same,Ratio Ki,Homo sapiens,102
same,Ki,Cannabinoid receptor 1 [3],2610 nM
CC1CCC(NC(=O)c2c(O)c3cccnc3n(Cc3ccc(F)cc3)c2=O)CC1 (configuration not stated),Ki,Cannabinoid receptor 2 [2],0.75 nM
same,inhibition,PBMC [4],Dose-dependent effect
same,Activity,LNCaP [5],inactive
same,inhibition,PBMC [6],Active
same,EC50,Cannabinoid receptor 2 [7],3.16 nM
same,Emax,Cannabinoid receptor 2 [7],216%
same,inhibition,PBMC [8],Dose-dependent effect
same,inhibition,PBMC [9],Dose-dependent effect
same,inhibition,PBMC [10],Active
same,Activity,[11],inactive
same,inhibition,PBMC [12],Active
same,inhibition,PBMC [13],Active
same,Ki,Cannabinoid receptor 1 [3],138 nM
same,Activity,PBMC [14],Dose-dependent effect
same,inhibition,PBMC [15],Dose-dependent effect
same,inhibition,PBMC [16],Dose-dependent effect
same,Activity,PBMC [17],Dose-dependent effect
same,inhibition,PBMC [18],Active
same,inhibition,PBMC [19],Dose-dependent effect
same,Activity,CHO,inactive
same,inhibition,PBMC [20],Dose-dependent effect
same,IC50,LNCaP [1],2080 nM
CC1CCC(NC(=O)c2c(O)c3cccnc3n(CCCO)c2=O)CC1 (configuration not stated),Ki,Cannabinoid receptor 2 [2],215 nM
same,Ratio Ki,Homo sapiens,> 4.6
same,Ki,Cannabinoid receptor 1 [3],> 10000 nM
CCCCCn1c(=O)c(C(=O)NC2CCC(C)CC2)cc2ccccc21 (configuration not stated),Ki,Cannabinoid receptor 2 [2],1.5 nM
same,inhibition,PBMC [21],inactive
same,Activity,[22],inactive
same,EC50,Cannabinoid receptor 2 [7],2 nM
same,Emax,Cannabinoid receptor 2 [7],280%
same,inhibition,PBMC [23],inactive
same,Activity,LNCaP [24],inactive
same,Emax,[25],230%
same,inhibition,PBMC [26],Active
same,inhibition,PBMC [27],Active
same,Ki,Cannabinoid receptor 1 [3],227 nM
same,EC50,Cannabinoid receptor 1 [28],2510 nM
same,inhibition,PBMC [29],Active
same,inhibition,PBMC [30],inactive
same,viability at 10 µM,PBMC [31],71.5%
same,inhibition,PBMC [32],Active
same,Activity,PBMC [33],Active
same,Activity,CHO,inactive
same,IC50,LNCaP [1],3900 nM
CCCCCCC(C)(C)c1cc(O)c2c(c1)OC(C)(C)[C@@H]1CC=C(CO)C[C@@H]21,Emax,Cannabinoid receptor 2 [7],290%
CCCCn1c(=O)c(C(=O)NC2CCC(C)CC2)c(O)c2cccnc21 (configuration not stated),Ki,Cannabinoid receptor 2 [2],11.2 nM
same,Ratio Ki,Homo sapiens,62
same,Ki,Cannabinoid receptor 1 [3],701 nM
CCCCn1c(=O)c(C(=O)NC2CCC(C)CC2)cc2ccccc21 (configuration not stated),Ki,Cannabinoid receptor 2 [2],19.8 nM
same,Ratio Ki,Homo sapiens,28
same,Ki,Cannabinoid receptor 1 [3],551 nM
CC1CCC(NC(=O)c2cc3ccccc3n(CCN3CCOCC3)c2=O)CC1 (configuration not stated),Ki,Cannabinoid receptor 2 [2],4.2 nM
same,Ratio Ki,Homo sapiens,190
same,Ki,Cannabinoid receptor 1 [3],800 nM
CC1CCC(NC(=O)c2cc3ccccc3n(Cc3ccc(F)cc3)c2=O)CC1 (configuration not stated),Ki,Cannabinoid receptor 2 [2],0.75 nM
same,Ratio Ki,Homo sapiens,27.7
same,Ki,Cannabinoid receptor 1 [3],19.4 nM
